Laboratory results from ChEMBL document CHEMBL4311957, “Recent advances in natural antifungal flavonoids and their derivatives” (Bioorg Med Chem Lett, 2019).
≈ marks a conversion by molar mass, not a printed value.

What was measured:
Candida albicans [1] = test: Antifungal activity against Candida albicans ATCC 10231 after 48 hrs by CLSI-based broth microdilution method; format: functional; details: ATCC 10231, 48 h
Saccharomyces cerevisiae = test: Antifungal activity against Saccharomyces cerevisiae ATCC 9763 after 48 hrs by CLSI-based broth microdilution method; format: functional; details: ATCC 9763, 48 h
Cryptococcus gattii = test: Antifungal activity against Cryptococcus gattii after 72 hrs; format: functional, Cryptococcus gattii VGI
Trichophyton rubrum [2] = test: Antifungal activity against Trichophyton rubrum after 5 days; format: functional; details: 120 h
[3] = tested on: Trichophyton mentagrophytes; test: Antifungal activity against Trichophyton mentagrophytes after 5 days; format: functional; details: 120 h
Candida tropicalis [4] = test: Antifungal activity against Candida tropicalis CCC 131-2000 after 48 hrs by CLSI-based broth microdilution method; format: functional; details: CCC 131-2000, 48 h
Nannizzia gypsea = test: Antifungal activity against Microsporum gypseum after 5 days; format: functional; details: 120 h
Cryptococcus neoformans [5] = test: Antifungal activity against Cryptococcus neoformans ATCC 32264 after 48 hrs by CLSI-based broth microdilution method; format: functional; details: ATCC 32264, 48 h
Cryptococcus neoformans [6] = test: Antifungal activity against Cryptococcus neoformans after 72 hrs; format: functional
Trichophyton tonsurans = test: Antifungal activity against Trichophyton tonsurans after 5 days; format: functional; details: 120 h
Nakaseomyces glabratus [7] = test: Antifungal activity against Candida glabrata ATCC 90030; format: functional
Aspergillus fumigatus = test: Antifungal activity against Aspergillus fumigatus; format: functional
Cryptococcus neoformans [8] = test: Antifungal activity against Cryptococcus neoformans; format: functional
Candida parapsilosis [9] = test: Antifungal activity against Candida parapsilosis after 48 hrs by broth micro dilution method; format: functional; details: Lodderomyces parapsilosis
Candida albicans [10] = test: Antifungal activity against Candida albicans after 48 hrs by broth micro dilution method; format: functional
Cryptococcus neoformans [11] = test: Antifungal activity against Cryptococcus neoformans after 48 hrs by broth micro dilution method; format: functional
Candida albicans [12] = test: Antifungal activity against Candida albicans; format: functional, organism-based
Trichophyton rubrum [13] = test: Antifungal activity against Trichophyton rubrum; format: functional
Nakaseomyces glabratus [14] = test: Antifungal activity against Candida glabrata 493 by microdilution method; format: functional
Nakaseomyces glabratus [15] = test: Antifungal activity against Candida glabrata 531 by microdilution method; format: functional
Candida albicans [16] = test: Antifungal activity against Candida albicans 53 by microdilution method; format: functional
Candida parapsilosis [17] = test: Antifungal activity against Candida parapsilosis 96 by microdilution method; format: functional; details: Lodderomyces parapsilosis
Nakaseomyces glabratus [18] = test: Antifungal activity against Candida glabrata 510 by microdilution method; format: functional
Nakaseomyces glabratus [19] = test: Antifungal activity against Candida glabrata 482 by microdilution method; format: functional
Nakaseomyces glabratus [20] = test: Antifungal activity against Candida glabrata 507 by microdilution method; format: functional
Candida albicans [21] = test: Antifungal activity against Candida albicans 498 by microdilution method; format: functional
Candida tropicalis [22] = test: Antifungal activity against Candida tropicalis 166 by microdilution method; format: functional
Nakaseomyces glabratus [23] = test: Antifungal activity against Candida glabrata 587 by microdilution method; format: functional
Candida albicans [24] = test: Antifungal activity against Candida albicans ATCC 10231 by microdilution method; format: functional
Pichia kudriavzevii = test: Antifungal activity against Candida krusei 168 by microdilution method; format: functional
Candida albicans [25] = test: Antifungal activity against Candida albicans 501 by microdilution method; format: functional
Candida tropicalis [26] = test: Antifungal activity against FLC-resistant Candida tropicalis in presence of FLC; format: functional

O=c1c(O[C@@H]2O[C@H](CO)[C@@H](O)[C@H](O)[C@H]2O)c(-c2cc(O)c(O)c(O)c2)oc2cc(O)cc(O)c12
MIC (Candida albicans [1]): 31.2 µg/mL (≈ 64.9 µM)
MIC (Saccharomyces cerevisiae): 31.2 µg/mL (≈ 64.9 µM)
MIC (Cryptococcus gattii): 128 µg/mL (≈ 266 µM)
MIC (Trichophyton rubrum [2]): 4 to 128 µg/mL (≈ 8.33 to 266 µM)
MIC [3]: 4 to 128 µg/mL (≈ 8.33 to 266 µM)
MIC (Candida tropicalis [4]): 31.2 µg/mL (≈ 64.9 µM)
MIC (Nannizzia gypsea): 4 to 128 µg/mL (≈ 8.33 to 266 µM)
MIC (Cryptococcus neoformans [5]): 31.2 µg/mL (≈ 64.9 µM)
MIC (Cryptococcus neoformans [6]): 8 to 128 µg/mL (≈ 16.7 to 266 µM)
MIC (Trichophyton tonsurans): 4 to 128 µg/mL (≈ 8.33 to 266 µM)
MIC (Nakaseomyces glabratus [7]): 8.53 µg/mL (≈ 17.8 µM)

Cc1c(O)c2c(c(C(=O)/C=C/c3ccccc3)c1O)OC(C)(C)C=C2
MIC (Aspergillus fumigatus): 16 µg/mL (≈ 47.6 µM)
MIC (Cryptococcus neoformans [8]): 4 to 8 µg/mL (≈ 11.9 to 23.8 µM)

O=C(O)[C@H]1O[C@@H](Oc2cc(O)c3c(=O)cc(-c4ccc(O)cc4)oc3c2)[C@H](O)[C@@H](O)[C@@H]1O
MIC (Candida parapsilosis [9]): 64 µg/mL (≈ 143 µM)
MIC (Candida albicans [10]): > 256 µg/mL
MIC (Cryptococcus neoformans [11]): 128 µg/mL (≈ 287 µM)

C=CC(C)(C)c1cc([C@@H]2CC(=O)c3c(O)cc(O)c(CC=C(C)C)c3O2)c(O)cc1O
IC50 (Candida albicans [12]): 121 µM
MIC (Candida albicans [12]): 121 µg/mL (≈ 285 µM)

CC(=O)c1c(O)c(C)c(O)c(Cc2c(O)c(C(=O)/C=C/c3ccc(O)cc3)c3c(c2O)[C@@H]2Oc4c(Cc5c(O)c(O)c(O)c(C(C)=O)c5O)c(O)c(C(=O)/C=C/c5ccc(O)cc5)c5c4[C@H](CC(C)(C)O5)[C@H]2C(C)(C)O3)c1O
MIC50 (Aspergillus fumigatus): 16 µg/mL (≈ 15 µM)
MIC50 (Cryptococcus neoformans [8]): 4 to 8 µg/mL (≈ 3.75 to 7.5 µM)

C=C(C)CC(O)c1c(O)ccc(C(=O)/C=C/c2ccc(O)cc2)c1O (stereo unspecified)
MIC50 (Candida albicans [12]): 15 µg/mL (≈ 44.1 µM)
MIC50 (Cryptococcus neoformans [8]): 7 µg/mL (≈ 20.6 µM)

COc1cc(O)cc2oc(-c3cc(O)c(O)c(O)c3)c(O)c(=O)c12
MIC (Candida albicans [1]): 31.2 µg/mL (≈ 93.9 µM)
MIC (Saccharomyces cerevisiae): 31.2 µg/mL (≈ 93.9 µM)
MIC (Cryptococcus gattii): 128 µg/mL (≈ 385 µM)
MIC (Trichophyton rubrum [2]): 4 to 128 µg/mL (≈ 12 to 385 µM)
MIC [3]: 4 to 128 µg/mL (≈ 12 to 385 µM)
MIC (Candida tropicalis [4]): 31.2 µg/mL (≈ 93.9 µM)
MIC (Nannizzia gypsea): 4 to 128 µg/mL (≈ 12 to 385 µM)
MIC (Cryptococcus neoformans [5]): 31.2 µg/mL (≈ 93.9 µM)
MIC (Cryptococcus neoformans [6]): 8 to 128 µg/mL (≈ 24.1 to 385 µM)
MIC (Trichophyton tonsurans): 4 to 128 µg/mL (≈ 12 to 385 µM)
MIC (Nakaseomyces glabratus [7]): 6.79 to 15.4 µg/mL (≈ 20.4 to 46.3 µM)

Nc1ccccc1C(=O)/C=C/c1ccc([N+](=O)[O-])cc1
MIC (Trichophyton rubrum [13]): 0.5 µg/mL (≈ 1.86 µM)

Nc1ccccc1C(=O)/C=C/c1cccc(F)c1
MIC (Trichophyton rubrum [13]): 0.5 µg/mL (≈ 2.07 µM)

O=C(/C=C/c1ccc(Cl)cc1Cl)c1ccc(/N=N/c2c(O)cccc2O)cc1
MIC (Candida albicans [12]): 15 µg/mL (≈ 36.3 µM)
MIC (Aspergillus fumigatus): 31.2 µg/mL (≈ 75.6 µM)

C[C@@H]1O[C@@H](Oc2c(-c3cc(O)c(O)c(O)c3)oc3cc(O)cc(O)c3c2=O)[C@H](O)[C@H](O)[C@H]1O
MIC (Nakaseomyces glabratus [14]): 3.9 to 7.8 µg/mL (≈ 8.4 to 16.8 µM)
MIC (Nakaseomyces glabratus [15]): 3.9 to 7.8 µg/mL (≈ 8.4 to 16.8 µM)
MIC (Candida albicans [16]): > 83 µg/mL
MIC (Candida parapsilosis [17]): > 83 µg/mL
MIC (Nakaseomyces glabratus [18]): 3.9 to 7.8 µg/mL (≈ 8.4 to 16.8 µM)
MIC (Nakaseomyces glabratus [19]): 3.9 to 7.8 µg/mL (≈ 8.4 to 16.8 µM)
MIC (Nakaseomyces glabratus [20]): 3.9 to 7.8 µg/mL (≈ 8.4 to 16.8 µM)
MIC (Candida albicans [21]): > 83 µg/mL
MIC (Candida tropicalis [22]): > 83 µg/mL
MIC (Nakaseomyces glabratus [23]): 3.9 to 7.8 µg/mL (≈ 8.4 to 16.8 µM)
MIC (Candida albicans [24]): > 83 µg/mL
MIC (Pichia kudriavzevii): > 83 µg/mL
MIC (Candida albicans [25]): > 83 µg/mL

Oc1cc(O)c2c(c1)O[C@H](c1ccc(O)c(O)c1)[C@@H](O)C2 [CIANIDANOL]
MIC (Candida tropicalis [26]): ≤ 16 µg/mL
